Assay results: ChEMBL document CHEMBL1150678, “Bioactive sterols from the starfish Certonardoa semiregularis” (2003)
Converted amounts (≈) assume the structure as drawn.

Columns and labels:
Escherichia coli [1] = test: Antimicrobial activity against Escherichia coli TEM isolate after 18 hrs; type: functional
Escherichia coli [2] = test: Antimicrobial activity against Escherichia coli 1507E isolate after 18 hrs; type: functional
Pseudomonas aeruginosa [3] = test: Antimicrobial activity against Pseudomonas aeruginosa 9027 isolate after 18 hrs; type: functional
Salmonella typhimurium = test: Antimicrobial activity against Salmonella Typhimurium after 18 hrs; type: functional, Salmonella enterica subsp. enterica serovar Typhimurium; details: Salmonella enterica
Klebsiella oxytoca = test: Antimicrobial activity against Klebsiella oxytoca 1082E after 18 hrs; type: functional
Klebsiella aerogenes = test: Antimicrobial activity against Klebsiella aerogenes 1522E after 18 hrs; type: functional
Enterobacter cloacae [4] = test: Antimicrobial activity against Enterobacter cloacae P99 after 18 hrs; type: functional
Enterobacter cloacae [5] = test: Antimicrobial activity against Enterobacter cloacae 1321E after 18 hrs; type: functional
Staphylococcus aureus [6] = test: Antimicrobial activity against Staphylococcus aureus 285 isolate after 18 hrs; type: functional
Escherichia coli [7] = test: Antimicrobial activity against Escherichia coli DC0 isolate after 18 hrs; type: functional
Escherichia coli [8] = test: Antimicrobial activity against Escherichia coli 078 isolate after 18 hrs; type: functional
Staphylococcus aureus [9] = test: Antimicrobial activity against Staphylococcus aureus 503 isolate after 18 hrs; type: functional
Streptococcus pyogenes [10] = test: Antimicrobial activity against Streptococcus pyogenes 77A isolate after 18 hrs; type: functional
Pseudomonas aeruginosa [11] = test: Antimicrobial activity against Pseudomonas aeruginosa 1592E isolate after 18 hrs; type: functional
Pseudomonas aeruginosa [12] = test: Antimicrobial activity against Pseudomonas aeruginosa 1771 isolate after 18 hrs; type: functional
Pseudomonas aeruginosa [13] = test: Antimicrobial activity against Pseudomonas aeruginosa 1771M isolate after 18 hrs; type: functional
Enterococcus faecium = test: Antimicrobial activity against Streptococcus faecium MD8b isolate after 18 hrs; type: functional
Staphylococcus aureus [14] = test: Antimicrobial activity against Staphylococcus aureus SG511 isolate after 18 hrs; type: functional
A549 = test: Cytotoxicity against human A549 cells; type: functional; details: read-out: ED50 (the source's name)
SK-OV-3 = test: Cytotoxicity against human SKOV3 cells; type: functional; details: read-out: ED50 (the source's name)
SK-MEL-2 = test: Cytotoxicity against human SK-MEL-2 cells; type: functional; details: read-out: ED50 (the source's name)
XF498 = test: Cytotoxicity against human XF498 cells; type: functional; details: read-out: ED50 (the source's name)
HCT-15 = test: Cytotoxicity against human HCT15 cells; type: functional; details: read-out: ED50 (the source's name)
Streptococcus pyogenes [15] = test: Antimicrobial activity against Streptococcus pyogenes 308A isolate after 18 hrs; type: functional
Escherichia coli [16] = test: Antimicrobial activity against Escherichia coli DC2 isolate after 18 hrs; type: functional

## C/C(=C\[C@@H](C)[C@H]1C[C@@H](O)[C@@H]2[C@]1(C)CC[C@@H]1[C@@]3(C)CC[C@H](O)C[C@@H]3[C@@H](O)C[C@]12O)[C@H](C)[C@@H](C)CO [CERTONARDOSTEROL I]
Escherichia coli [1]
  MIC: > 25 µg/mL
Escherichia coli [2]
  MIC: > 25 µg/mL
Pseudomonas aeruginosa [3]
  MIC: > 25 µg/mL
Salmonella typhimurium
  MIC: > 25 µg/mL
Klebsiella oxytoca
  MIC: > 25 µg/mL
Klebsiella aerogenes
  MIC: > 25 µg/mL
Enterobacter cloacae [4]
  MIC: > 25 µg/mL
Enterobacter cloacae [5]
  MIC: > 25 µg/mL
Staphylococcus aureus [6]
  MIC: > 25 µg/mL
Escherichia coli [7]
  MIC: > 25 µg/mL
Escherichia coli [8]
  MIC: > 25 µg/mL
Staphylococcus aureus [9]
  MIC: > 25 µg/mL
Streptococcus pyogenes [10]
  MIC: 25 µg/mL (≈ 52.2 µM)
Pseudomonas aeruginosa [11]
  MIC: > 25 µg/mL
Pseudomonas aeruginosa [12]
  MIC: 12.5 µg/mL (≈ 26.1 µM)
Pseudomonas aeruginosa [13]
  MIC: 25 µg/mL (≈ 52.2 µM)
Enterococcus faecium
  MIC: > 25 µg/mL
Staphylococcus aureus [14]
  MIC: > 25 µg/mL
A549
  EC50: 5.1 µg/mL (≈ 10.7 µM)
SK-OV-3
  EC50: 8.8 µg/mL (≈ 18.4 µM)
SK-MEL-2
  EC50: 5.3 µg/mL (≈ 11.1 µM)
XF498
  EC50: 7.3 µg/mL (≈ 15.2 µM)
HCT-15
  EC50: 6.3 µg/mL (≈ 13.2 µM)
Streptococcus pyogenes [15]
  MIC: 25 µg/mL (≈ 52.2 µM)
Escherichia coli [16]
  MIC: > 25 µg/mL

## C/C(=C\[C@@H](C)[C@H]1C[C@@H](O)[C@H]2[C@@H]3C[C@H](O)[C@H]4C[C@@H](O)CC[C@]4(C)[C@H]3CC[C@@]21C)[C@H](C)[C@@H](C)CO [CERTONARDOSTEROL J]
Escherichia coli [1]
  MIC: > 25 µg/mL
Escherichia coli [2]
  MIC: > 25 µg/mL
Pseudomonas aeruginosa [3]
  MIC: > 25 µg/mL
Salmonella typhimurium
  MIC: > 25 µg/mL
Klebsiella oxytoca
  MIC: > 25 µg/mL
Klebsiella aerogenes
  MIC: > 25 µg/mL
Enterobacter cloacae [4]
  MIC: > 25 µg/mL
Enterobacter cloacae [5]
  MIC: > 25 µg/mL
Staphylococcus aureus [6]
  MIC: > 25 µg/mL
Escherichia coli [7]
  MIC: > 25 µg/mL
Escherichia coli [8]
  MIC: > 25 µg/mL
Staphylococcus aureus [9]
  MIC: > 25 µg/mL
Streptococcus pyogenes [10]
  MIC: 25 µg/mL (≈ 54 µM)
Pseudomonas aeruginosa [11]
  MIC: > 25 µg/mL
Pseudomonas aeruginosa [12]
  MIC: 12.5 µg/mL (≈ 27 µM)
Pseudomonas aeruginosa [13]
  MIC: 25 µg/mL (≈ 54 µM)
Enterococcus faecium
  MIC: > 25 µg/mL
Staphylococcus aureus [14]
  MIC: > 25 µg/mL
A549
  EC50: 8 µg/mL (≈ 17.3 µM)
SK-OV-3
  EC50: 10.3 µg/mL (≈ 22.3 µM)
SK-MEL-2
  EC50: 7.1 µg/mL (≈ 15.3 µM)
XF498
  EC50: 11.4 µg/mL (≈ 24.6 µM)
HCT-15
  EC50: 12.5 µg/mL (≈ 27 µM)
Streptococcus pyogenes [15]
  MIC: 25 µg/mL (≈ 54 µM)
Escherichia coli [16]
  MIC: > 25 µg/mL
